Measured values: patent US20070025976A1, “Process for the purification of coenzyme Q10” (Cargill, Inc., priority 2005, published 2007)

Test: Solubility of pure CoQ10 in ethanol
Type: physicochemical
Experimental: The chromatography product from Example 8 is dissolved in 200 proof ethanol to create a 9 wt-% solution at 55° C. This should create a slightly sub-saturated solution. Table VI below provides solubility data for pure CoQ10 in ethanol.

`COC1=C(OC)C(=O)C(C/C=C(\C)CC/C=C(\C)CC/C=C(\C)CC/C=C(\C)CC/C=C(\C)CC/C=C(\C)CC/C=C(\C)CC/C=C(\C)CC/C=C(\C)CCC=C(C)C)=C(C)C1=O` [CoQ10, 2,3 dimethoxy-5 methyl-6 decaprenyl benzoquinone] gave a Solubility (30 °C) of 0.38 g/100 g Solvent, a Solubility (50 °C) of 8.99 g/100 g Solvent and a Solubility (60 °C) of 11.0 g/100 g Solvent.
